Experiment [1] deals with bovine PKC alpha. The experiment can be described thus: PKC catalytic activity in vitro (phosphorylation of [ser25]PKC19-31 in detergent cell extracts). Format: biochemical. To be noted: for inhibition of PKC alpha catalytic activity / activation of PKC alpha in vitro: PKC alpha expressed in yeast; for PMA and Ca^2+ stimulated mutant PKC activity: Ca^2+: Ca^2+ stimulation of in vitro catalytic activity; for PMA and Ca^2+ stimulated mutant PKC activity: PMA: PMA stimulation, common symbol for in vitro catalytic activity and PMA-mediated increase of cell doubling time; for PMA and Ca^2+ stimulated mutant PKC activity: -: no stimulus (basal), common symbol for in vitro catalytic activity and cell doubling time response. How it is done: FIG. 4 is a graph which compares PKC mutant and wild type catalytic activities in vitro. […] Catalytic activity was stimulated by combinations of phosphatidylserine (PS), the phorbol ester PMA and calcium ions (Ca^2+). PS, open; PMA+PS, solid; Ca^2+ +PS, diagonally striped.
Cell lysis. About 6×10^8 expressing cells were washed in PBS and were resuspended in 1 ml lysis buffer containing 1% Triton X100, 50 mM Hepes pH 7.4, 15-mM NaC1, 5 mM EDTA, 5 mM EGTA, 10 μg/ml pepstatin, 40 μg/ml leupeptin, 10 μg/ml aprotinin and 200 μg/ml PMSF. Cell suspensions mixed with the same volume of acid washed glass beads (450-500 μm) were lysed mechanically by six 30 second vortexing steps interrupted by cooling on ice for at least 30 second in 50 ml screw cap polypropylene tubes. The lysate was cleared by 4,000 g centrifugation for 15 minutes at 4 degrees C and stored at […] for up to several weeks.
PKC catalytic activity. […] Phosphatidylserine in chloroform, with or without PMA was evaporated under N2 to dryness, resuspended in 20 mM Tris pH 7.5, mixed and sonicated at 4 degrees C for 45 seconds before use. To terminate the reaction the sample was placed on phosphocellulose paper (Whatman P81) which was repeatedly washed in 75 mM phosphoric acid. Bound radioactivity was determined by liquid scintillation spectroscopy.

Experiment [2] has as its system Saccharomyces cerevisiae strain 334 expressing bovine PKC alpha. The experiment can be described thus: Cell doubling time of yeast cultures expressing PKC alpha wild type and mutant cDNAs. The format is cell-based. To be noted: wild-type yeast cells without mammalian PKC, 1 μM PMA. The method, then: FIG. 2 is a graph of cell doubling time of yeast cultures expressing PKC alpha wild type and mutant cDNAs. Freshly saturated cultures expressing control plasmids (Cont.), normal PKC alpha (PKCa) or deletion mutants D172-225, ND153 or CD26 were diluted to low cell densities. Cell growth was followed on a roller at 30 degrees C to measurable cell densities of the logarithmic growth phase at 0.2-0.6 O.D. 600. […] Average doubling times were calculated.
Yeast strains and culture conditions. PKC expression plasmids and YEp51 or YEp52 as controls were introduced into Saccharomyces cerevisiae strain 334 [MAT alpha, pep 4-3, prb1-122, ura 3-52; leu2-3, 112, reg1-501, gal1]by lithium acetate transformation See e.g., Ito et al. 1983, J. Bacterial. 153: 163. Cells were routinely grown at 30 degrees C on a culture roller or shaker in liquid culture or on 1.5% agar plates. The synthetic medium contained 2% glucose and was leucine-free to select for stable propagation of the expression plasmids. Expressing yeast colonies were identified phenotypically by replica plating on medium containing or lacking PMA. Phenol extracts of crude cell lysates were prepared to re-transform Escherichia coli DH5 alpha. PKC mutants were characterized by DNA sequencing and defined plasmids were re-introduces into S. cerevisiae 334. These strains were used in all experiments shown. 50 ml cultures were routinely inoculated from freshly saturated cultures and grown for 16 h to an optical density of 0.4 at O.D.600.
Cell doubling times were measured by O.D.600 reading of liquid cultures in the presence of 2% galactose as shown in FIG. 2 to test whether they correlate with the specific phenotypes (colony size) caused by normal mutant PKC alpha. […] A normal 4 hours doubling time was measured for all constructs in the absence of galactose.

This note sets out measurements from US5776685A, “Protein kinase C assay” (Joslin Diabetes Center, priority 1996, dated 1998).

In the case of `CC1CNCCN1S(=O)(=O)c1cccc2cnccc12` (racemic) [H-7, reference compound], in experiment [1], the “inhibition of PKC alpha catalytic activity” value (“inhibition” below) was “efficiently inhibited”.

Consider `CC(C)[C@H]1C(=O)N[C@H](CO)Cc2c[nH]c3cccc(c23)N1C` [(-)-indolactam V, reference compound], for which, in experiment [1], the “activation of PKC alpha in vitro” value was “efficiently activated”.

On to `CCCCCCCCCCN(C)c1cc(CO)cc(NC(C)=O)c1` [ADMB, 3-(N-acetylamino)-5(N-decyl-N-methylamino) benzyl alcohol, reference compound], for which, in experiment [1], the “activation of PKC alpha in vitro” value is reported as “efficiently activated”.

On to `CCCCCCCCCCNc1cc(CO)c2cc[nH]c2c1` [DHI, 6-(N-decylamino)-4-hydroxymethylindole, reference compound], for which, in experiment [1], the “activation of PKC alpha in vitro” value was “efficiently activated”.

Turning to `CC1=CC23C(=O)C(C=C(COC(=O)c4ccccc4)C(O)C2(O)C1OC(=O)c1ccccc1)C1C(CC3C)C1(C)C` (stereo not drawn) [ID, ingenol 3,20-dibenzoate, reference compound], the “activation of PKC alpha in vitro” value in experiment [1] was “efficiently activated”.

As for `CCCCCCCCCCCCCC(=O)O[C@@H]1[C@@H](C)[C@@]2(O)[C@@H](C=C(CO)C[C@]3(O)C(=O)C(C)=C[C@@H]23)[C@@H]2C(C)(C)[C@]12OC(C)=O` [PMA, phorbol-12-myristate-13-acetate, reference compound], the “response of wild-type yeast cells (doubling time, colony size)” value in experiment [2] was “did not respond”. The “activation of PKC alpha in vitro” value in experiment [1] is given as “efficiently activated”.

With `CN(C)c1ccc2cc3ccc(N(C)C)cc3nc2c1` [acridine orange, reference compound], the “inhibition” value in experiment [1] is “efficiently inhibited”.

As for `COc1ccc2c(c[n+](C)c3c4cc5c(cc4ccc23)OCO5)c1OC` [chelerythrine, reference compound], the “inhibition” value in experiment [1] is “efficiently inhibited”.

For `CC1=C[C@H]2[C@@]3(O)[C@H](C)C[C@]4(OC(=O)Cc5ccccc5)[C@H]([C@@H]3C=C(CO)C[C@]2(O)C1=O)C4(C)C` [dPP, 12-deoxyphorbol 1 3-phenylacetate, reference compound], in experiment [1], the “activation of PKC alpha in vitro” value is given as “efficiently activated”.

On to `Cc1cc(N)c2ccccc2[n+]1CCCCCCCCCC[n+]1c(C)cc(N)c2ccccc21` [dequalinium, reference compound], for which the “inhibition” value in experiment [1] is “efficiently inhibited”.

`C=C(C)C12OC3(c4ccccc4)OC1C1C4OC4(CO)C(O)C4(O)C(=O)C(C)=CC4C1(O3)C(C)C2OC(=O)/C=C/C=C/c1ccccc1` (stereo not drawn) [mezerein, reference compound]: the “activation of PKC alpha in vitro” value in experiment [1] is reported as “efficiently activated”.

For `CCCCCCCCCCCCC/C=C/[C@@H](O)[C@@H](N)CO[C@@H]1O[C@H](CO)[C@H](O)[C@H](O)[C@H]1O` [psychosine, reference compound], the “inhibition” value in experiment [1] is “efficiently inhibited”.

Regarding `CN1CCN(CCCN2c3ccccc3Sc3ccc(C(F)(F)F)cc32)CC1` [trifluoperazine, reference compound], in experiment [1], the “inhibition” value was “efficiently inhibited”.

In the case of “CD96: PKC alpha deletion mutant lacking 96 carboxyl terminal aa”, in experiment [1], the “PMA and Ca^2+ stimulated mutant PKC activity: Ca^2+” value is “-”; the “PMA and Ca^2+ stimulated mutant PKC activity: PMA” value is “-”; the “PMA and Ca^2+ stimulated mutant PKC activity: -” value is reported as “-”.

Consider “CD110: PKC alpha deletion mutant lacking 110 carboxyl terminal aa”, for which, in experiment [1], the “PMA and Ca^2+ stimulated mutant PKC activity: Ca^2+” value is on record as “-”; the “PMA and Ca^2+ stimulated mutant PKC activity: PMA” value was “-”; the “PMA and Ca^2+ stimulated mutant PKC activity: -” value is reported as “-”.

Take “CD139: PKC alpha deletion mutant lacking 139 carboxyl terminal aa”: in experiment [1], the “PMA and Ca^2+ stimulated mutant PKC activity: Ca^2+” value is reported as “-”; the “PMA and Ca^2+ stimulated mutant PKC activity: PMA” value is “-”; the “PMA and Ca^2+ stimulated mutant PKC activity: -” value is listed as “-”.

For the compound “CD149: PKC alpha deletion mutant lacking 149 carboxyl terminal aa”, in experiment [1], the “PMA and Ca^2+ stimulated mutant PKC activity: Ca^2+” value is on record as “-”; the “PMA and Ca^2+ stimulated mutant PKC activity: PMA” value was “-”; the “PMA and Ca^2+ stimulated mutant PKC activity: -” value was “-”.

For the compound “ND84: PKC alpha deletion mutant lacking 84 amino terminal aa”, in experiment [1], the “PMA and Ca^2+ stimulated mutant PKC activity: Ca^2+” value is reported as “++”; the “PMA and Ca^2+ stimulated mutant PKC activity: PMA” value is on record as “+”; the “PMA and Ca^2+ stimulated mutant PKC activity: -” value is on record as “+”.

For “ND158: PKC alpha deletion mutant lacking 158 amino terminal aa”, in experiment [1], the “PMA and Ca^2+ stimulated mutant PKC activity: Ca^2+” value is listed as “++”; the “PMA and Ca^2+ stimulated mutant PKC activity: PMA” value is “+”; the “PMA and Ca^2+ stimulated mutant PKC activity: -” value is listed as “+”.

In the case of “ND188: PKC alpha deletion mutant lacking 118 amino terminal aa (printed ND188 in Table 1)”, in experiment [1], the “PMA and Ca^2+ stimulated mutant PKC activity: Ca^2+” value was “++”; the “PMA and Ca^2+ stimulated mutant PKC activity: PMA” value was “+”; the “PMA and Ca^2+ stimulated mutant PKC activity: -” value is “+”.

For “ND 140: PKC alpha deletion mutant lacking 140 amino terminal aa”, in experiment [1], the “PMA and Ca^2+ stimulated mutant PKC activity: Ca^2+” value was “++”; the “PMA and Ca^2+ stimulated mutant PKC activity: PMA” value was “+”; the “PMA and Ca^2+ stimulated mutant PKC activity: -” value is “+”.

Take polymyxin B [reference compound]: in experiment [1], the “inhibition” value was “efficiently inhibited”.
